# Measurements from patent publication US7947692B2, “Substituted thiazolo[5,4-d]pyrimidine urea derivatives” (Hoffmann-La Roche Inc., priority 2006, dated 2011).
# Molecular target: T1, human adenosine A2B receptor (Homo sapiens, UniProt P29275)
# T1 construct: expressed in transfected cells; host or cells: CHO.K1
# T1 sequence (P29275 1-332): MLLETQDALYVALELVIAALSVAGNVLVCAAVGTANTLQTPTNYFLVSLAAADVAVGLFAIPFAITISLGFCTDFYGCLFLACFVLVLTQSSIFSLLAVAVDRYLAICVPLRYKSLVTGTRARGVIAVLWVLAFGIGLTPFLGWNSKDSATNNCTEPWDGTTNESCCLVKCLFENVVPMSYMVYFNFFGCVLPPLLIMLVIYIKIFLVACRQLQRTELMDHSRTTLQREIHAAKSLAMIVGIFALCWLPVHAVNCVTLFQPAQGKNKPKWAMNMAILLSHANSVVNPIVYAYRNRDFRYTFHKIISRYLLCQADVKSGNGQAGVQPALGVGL
# Test: Inhibitory activity on NECA-induced cyclic AMP production in CHO.K1 cells expressing human adenosine A2B receptor
# Type: cell-based
# Conditions: 100 nM NECA, cAMP (HitHunter kit), 30-45 min incubation
# Method: Cells were cultured under 5%CO2/95% […] atmosphere at 37° C. in DMEM and D-MEM/F-12 (1:1 mixture) medium (Invitrogen, Grand Island, N.Y.) with 10% fetal calf serum (Invitrogen, Grand Island, N.Y.), 100 U/mL penicillin (Invitrogen, Grand Island, N.Y.), 100 U/mL streptomycin (Invitrogen, Grand Island, N.Y.), 1 mg/mL G418 (Invitrogen, Grand Island N.Y.) and 0.2 mg/mL Hygromycin B (Invitrogen, Carlsbad, Calif.). Experimental cultures were grown overnight as a monolayer in 384-well tissue culture plates (0.06 ml/well-7500 cells/well). Each well was washed once with 0.1 mL of Krebs buffer. To each well was added 50 uL of Krebs buffer containing 100 uM of the phosphodiesterase inhibitor 4-(3-butoxy-4-methoxybenzyl)-2-imidazolidinone, 100 nM NECA (Sigma-Aldrich, St. Louis, Mo.), 0.02% BSA Fraction V (Roche Biochemicals), the test compound (appropriate concentration). The final concentration of DMSO was 1.1%. After incubation for 30-45 min, the wells were emptied and blotted on paper towel to remove residual solution. The HitHunter™ cAMP Assay Kit from DiscoverX for adherent cells (Fremont, Calif.) was used for lysing the cells and measuring cAMP concentrations.
row,IC50,Structure (SMILES)
1,2 nM,"COc1ncnc2sc(NC(=O)N3CCC(NCc4ccc(F)c(C(F)(F)F)c4)C3)nc12 (stereo in doubt) [Example 87, (R)-3-(4-Fluoro-3-trifluoromethyl-benzylamino)-pyrrolidine-1-carboxylic acid (7-methoxy-thiazolo[5,4-d]pyrimidin-2-yl)-amide]"
2,5 nM,"COc1ncnc2sc(NC(=O)N3CCN(Cc4cccc(C(F)(F)F)c4)CC3)nc12 [Example 1, 4-(3-trifluoromethyl-benzyl)-piperazine-1-carboxylic acid (7-methoxy-thiazolo[5,4-d]pyrimidin-2-yl)-amide]"
3,30 nM,"COC(=O)c1cccc(CN2CCN(C(=O)Nc3nc4c(OC)ncnc4s3)CC2)c1 [Example 10, 3-[4-(7-Methoxy-thiazolo[5,4-d]pyrimidin-2-ylcarbamoyl)-piperazin-1-ylmethyl]-benzoic acid methyl ester]"
4,197 nM,"COc1ncnc2sc(NC(=O)N3CCN(Cc4cccc(OCCO)c4)CC3)nc12 [Example 16, 4-[3-(2-Hydroxy-ethoxy)-benzyl]-piperazine-1-carboxylic acid (7-methoxy-thiazolo[5,4-d]pyrimidin-2-yl)-amide]"
5,1560 nM,"COc1ncnc2sc(NC(=O)N3CCN(Cc4cccc(C(=O)O)c4O)CC3)nc12 [Example 27, 2-Hydroxy-3-[4-(7-methoxy-thiazolo[5,4-d]pyrimidin-2-ylcarbamoyl)-piperazin-1-ylmethyl]-benzoic acid]"
6,9 nM,"COc1ncnc2sc(NC(=O)N3CCC4(CC3)C(=O)NC[C@H]4c3ccc(F)cc3)nc12 [Example 31, 4-(4-Fluoro-phenyl)-1-oxo-2,8-diazaspiro[4,5]decane-8-carboxylic acid(7-methoxy-thiazolo[5,4-d]pyrimidin-2-yl)-amide]"
7,9 nM,"COc1ncnc2sc(NC(=O)N3CCC4(CC3)CN(S(C)(=O)=O)c3ccc(Cl)cc34)nc12 [Example 48, 5-Chloro-1,2-dihydro-N-(7-methoxythiazole[5,4-d]pyrimidin-2-yl)-1-(methylsulfonyl)spiro[3H-indole-3,4′-piperidine]-1′-carboxamide]"
8,1460 nM,"CCOC(=O)C1(Cc2ccc(OC(F)(F)F)cc2)CCCN(C(=O)Nc2nc3c(OC)ncnc3s2)C1 (centres unmarked) [Example 54, 1-(7-Methoxy-thiazolo[5,4-d]pyrimidin-2-ylcarbamoyl)-3-(4-trifluoromethoxy-benzyl)-piperidine-3-carboxylic acid ethyl ester]"
9,52 nM,"COc1ncnc2sc(NC(=O)N3CCC(n4c(=O)[nH]c5ccccc54)CC3)nc12 [Example 57, 4-(2-Oxo-2,3-dihydro-benzoimidazol-1-yl)-piperidine-1-carboxylic acid (7-methoxy-thiazolo[5,4-d]pyrimidin-2-yl)-amide]"
10,218 nM,"COc1ncnc2sc(NC(=O)N3CCC(N4CCCC4c4ccccc4)CC3)nc12 (centres unmarked) [Example 62, 4-(2-Phenyl-pyrrolidin-1-yl)-piperidine-1-carboxylic acid (7-methoxy-thiazolo[5,4-d]pyrimidin-2-yl)-amide]"
11,51 nM,"COc1ncnc2sc(NC(=O)N3CC=C(c4cccc(C(F)(F)F)c4)CC3)nc12 [Example 67, 4-(3-Trifluoromethyl-phenyl)-3,6-dihydro-2H-pyridine-1-carboxylic acid (7-methoxy-thiazolo[5,4-d]pyrimidin-2-yl)-amide]"
12,73 nM,"COC(=O)c1ccccc1S(=O)(=O)C1CCN(C(=O)Nc2nc3c(OC)ncnc3s2)CC1 [Example 76, 2-[1-(7-Methoxy-thiazolo[5,4-d]pyrimidin-2-ylcarbamoyl)-piperidine-4-sulfonyl]-benzoic acid methyl ester]"
13,4 nM,"COc1ncnc2sc(NC(=O)N3CC[C@H](NC(=O)c4ccc(F)c(C(F)(F)F)c4)C3)nc12 [Example 89, (S)-3-(4-fluoro-3-trifluoromethyl-benzoylamino)-pyrrolidine-1-carboxylic acid (7-methoxy-thiazolo[5,4-d]pyrimidin-2-yl)-amide]"
14,115 nM,"COc1ncnc2sc(NC(=O)N3CCc4cc(C(F)(F)F)ccc4C3)nc12 [Example 95, 6-Trifluoromethyl-3,4-dihydro-1H-isoquinoline-2-carboxylic acid (7-methoxy-thiazolo[5,4-d]pyrimidin-2-yl)-amide]"
